Data from patent US20130165652A1, “NOVEL HETEROCYCLIC COMPOUND, AND COMPOSITION FOR TREATING INFLAMMATORY DISEASES USING SAME” (NEOPHARM CO.,LTD., priority 2010, published 2013).

Experiments:
PAR-2 [1] = target: T1, PAR-2 (Homo sapiens, UniProt P55085); experiment: Confocal microscopy of PAR-2 activation in KNRK-PAR-2 cell line; format: cell-based; details: KNRK-PAR-2 cells; [trypsin]=11 μM, [SLIGKV]=100 μM, [Compound 45]=200 μM
T1 sequence (P55085 26-397): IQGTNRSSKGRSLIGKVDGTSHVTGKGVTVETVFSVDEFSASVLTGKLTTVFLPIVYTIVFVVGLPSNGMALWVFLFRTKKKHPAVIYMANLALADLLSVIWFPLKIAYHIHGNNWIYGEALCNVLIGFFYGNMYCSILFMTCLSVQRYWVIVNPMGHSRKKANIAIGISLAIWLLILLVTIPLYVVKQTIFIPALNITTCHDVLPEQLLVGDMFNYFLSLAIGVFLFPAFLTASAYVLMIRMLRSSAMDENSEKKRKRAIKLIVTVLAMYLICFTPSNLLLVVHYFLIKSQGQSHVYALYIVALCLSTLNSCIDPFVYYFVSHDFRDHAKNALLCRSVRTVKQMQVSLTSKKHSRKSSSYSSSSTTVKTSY
Description: In order to visually confirm the activation of the PAR-2, a cell line having the following structure was prepared based on existing references, and activation of the PAR-2 was observed using a confocal microscope. As the cell line, Kirsten Murine Sarcoma Virus transformed rat kidney epithelial cell (KNRK cell) was used. In this cell line, the PAR-2 may not be expressed in a normal state. Each of the N-terminals of […] were tagged with Flag epitope, and each of the C-terminals were tagged with Myc epitope, such that a stable transfected cell was constructed. […] In a state in which the PAR-2 was not activated, Flag and Myc were double stained, such that a yellow image was shown in a merged image. However, in the case in which the PAR-2 was activated, a red image was shown while the Flag is separated.

PAR-2 [2] = target: T1, PAR-2; experiment: Calcium immobilization assay (Calcium-4 assay kit); format: cell-based; details: HCT-15 cells over-expressing PAR-2; activating peptide (AP) as PAR-2 activating agent; inhibitor treated for 5 minutes before AP
Description: In order to evaluate inhibitory activity of the synthesized materials against the PAR-2, primarily, an assay system in which a concentration of calcium ions in cell may be measured in real time was constructed, and evaluation was conducted using this system. The PAR-2 is a kind of G-protein coupled receptors (GPCR), and when the PAR-2 is activated in cell, phospholipase C-b (PLC-b) decomposes phosphatidylinositol 4,5-bisphosphate (PIP2) into inositol triphosphate (IP3) and diacyl glycerol (DAG) while being activated. IP3 generated at this time stimulates secretion of calcium ions in endoplasmic reticulum (ER), which is a storage of calcium ions in a cell, such that the concentration of calcium ions in the cell is increased. Based on an existing study result, an in vitro screening assay system capable of detecting a material capable of suppressing the concentration of calcium ions in the cell from being increased by activation of PAR-2 was constructed. As a PAR-2 activating agent, activating peptide (AP) was used, and as a reagent for detecting the concentration of calcium ion in the cell, a Calcium-4 assay kit produced (Molecular Probe). […]
The inhibitory activity of the synthesized materials against the PAR-2 was evaluated using the protocol as described above, and profiles of the assay for Compounds 45 and 73 prepared in Examples 1 and 2 were shown in FIGS. 1 and 2.

PAR-2 [3] = target: T1, PAR-2; experiment: PathHunter β-arrestin GPCR assay; format: cell-based; set-up: purchased DiscoveRx Corp; details: β-arrestin accumulation; SKIGKV-NH2 (10 μM); samples 1000 to 50 μM
Description: An in vitro assay protocol capable of detecting activation of the PAR-2 was additionally introduced in addition to a calcium immobilization assay to measure the activity of the selected materials. First, the PAR-2 inhibitory activities of two kinds of samples were measured using a PathHunter™ β-arrestin GPCR assay kit (DiscoveRx Corp.) capable of detecting accumulation of β-arrestin, which is an intracellular reaction firstly generated by the activation of the PAR-2. Experiments were conducted by diluting concentrations of the samples by one-half, ranging from 1000 to 50 μM and SKIGKV-NH2 (10 μM) was treated with the PAR-2 […]. As an experimental result, suppression of β-arrestin was confirmed in both of the two kinds of samples at a concentration of 500 μM. As a measurement result, it was observed that IC50 values were different from those in calcium immobilization assay (See Table 1).

[4] = system: oxazolone induced chronic dermatitis; experiment: Oxazolone induced chronic dermatitis animal model; format: in vivo, hairless mouse (SKH-1); details: hairless mice, applied once a day for 3 days
Description: Effects of the selected materials were evaluated using chronic dermatitis animal model. Oxazolone induced chronic dermatitis animal model by continuously applying oxazolone, which is a kind of hapten, to a hairless mouse was used. It was reported that various symptoms of atopic dermatitis relatively accurately appear in recently developed oxazolone model, and the present inventors also confirmed through the prior study that various symptoms of general atopic dermatitis appear similarly to clinically appearing symptoms. In order to construct the chronic dermatitis animal model, 5% oxazolone was applied and sensitized to the hairless mice (SKH-1, 6 weeks old). After 1 week, 0.1% oxazolone was applied every other day for 2 weeks, thereby induced the symptoms of dermatitis. After samples were applied to the dermatitis induced animal once a day for 3 days, changes in various skin functions and a skin thickness were observed. Finally, biopsy was performed on skin tissue, and histological observation was conducted. As a positive control group used in the experiment, 0.05% desonide formulation, which is a steroid having relatively weak potency, was used, and changes in trans-epidermal water loss (TEWL) skin hydration in stratum cornea, and skin thickness were observed.

Cytotoxicity (CC50) = format: cell-based

Row | activation of the PAR-2 (Flag/Myc double staining, merged image) (PAR-2 [1]) | IC50 (PAR-2 [2]) [µM] | IC50 (PAR-2 [3]) [µM] | SMILES | trans-epidermal water loss (TEWL) ([4]; FIG. 5) | skin hydration in stratum cornea ([4]; FIG. 6) | skin thickness ([4]; FIG. 7) | CC50 (Cytotoxicity (CC50)) [µM]
1 | activation of the PAR-2 was suppressed | 73.8 | 339 | Cc1cccc(-c2c(C)nc3ccc(C(=O)N4CCCCC4)cn23)c1 [Compound 45] | effectively restore | effectively restore | statistically significant improvement effect | > 100
2 |  | 76.7 | 401 | Cc1nc2ccc(C(=O)N3CCN(C(=O)C4CCCCC4)CC3)cn2c1-c1ccccc1 [Compound 73, (4-(cyclohexanecarbonyl)piperazin-1-yl)(2-methyl-3-phenylimidazo[1,2-a]pyridin-6-yl)methanone] |  |  |  | > 100
